According to paper PMC5849406 (Pharmacological research, 2017):
pEC50, pIC50, pKi: −log10 of the molar value. Where “and” joins values, the source holds several entries; their conditions need not be identical. Identical values can stand only once. Like-named read-outs stand apart in the source and are kept apart here. Marks after values point to notes of the source that are not given here.

Legend:
[1] = system: hCB1Rs; experiment: Biased hCB1R signaling: ΔΔlog; set-up: species or system human; conditions: CHO-β2-hCB1, reference CP-55,940; for GTPγS / β-Arrestin 2 (Operational) Bias Factor: 10^ΔΔlog(τ/KA); for AC / β-Arrestin 2 (Competitive) ΔΔLog(τ/KA) / AC / β-Arrestin 2 (Operational) ΔΔLog(τ/KA) / GTPγS / β-Arrestin 2 (Competitive) ΔΔLog(τ/KA) / GTPγS / β-Arrestin 2 (Operational) ΔΔLog(τ/KA): 95% confidence interval in parentheses
[2] = target: T1, hCB1Rs (Homo sapiens, UniProt P21554); assay type: binding; conditions: 0.2 nM [^3H]-CP55,940; for ^3H-CP-55,940 Binding pKi: mean ± S.E.M.; for pKi: read-out: ^3H-CP-55,940 Binding Ki
T1 sequence (P21554 whole entry): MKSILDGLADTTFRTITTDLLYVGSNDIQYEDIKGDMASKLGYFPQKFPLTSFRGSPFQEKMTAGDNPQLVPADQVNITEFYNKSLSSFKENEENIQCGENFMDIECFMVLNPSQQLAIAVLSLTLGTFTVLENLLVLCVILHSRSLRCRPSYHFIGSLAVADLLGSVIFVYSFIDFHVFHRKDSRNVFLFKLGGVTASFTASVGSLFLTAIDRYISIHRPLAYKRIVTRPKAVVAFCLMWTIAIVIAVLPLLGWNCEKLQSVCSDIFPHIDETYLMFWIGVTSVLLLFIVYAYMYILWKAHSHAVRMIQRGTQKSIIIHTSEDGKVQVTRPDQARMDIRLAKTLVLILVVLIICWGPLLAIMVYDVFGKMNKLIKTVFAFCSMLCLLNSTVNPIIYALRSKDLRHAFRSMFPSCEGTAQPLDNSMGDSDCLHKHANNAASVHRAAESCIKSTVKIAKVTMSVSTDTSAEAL

[3] = target: T1, hCB1Rs; experiment: [^35S]GTPγS binding; assay type: biochemical; conditions: for ^35S-GTPγS Binding Assay ΔLog(τ/KA): CHO-β2-hCB1, normalized to reference CP-55,940, 95% CI printed in the cell; for ^35S-GTPγS Binding Assay EMAX: fraction of the effect produced by the reference agonist CP-55,940; for pEC50: read-out: ^35S-GTPγS Binding Assay EC50
[4] = target: T1, hCB1Rs; experiment: Forskolin-stimulated intracellular cAMP levels; assay type: cell-based; conditions: for cAMP Assay Log(τ/KA): Black-Leff operational model; for cAMP Assay pIC50 / cAMP Assay IMAX / pIC50: intact CHO-β2-hCB1 cells; for cAMP Assay pIC50 / pIC50: 10 µM forskolin; for cAMP Assay IMAX: fraction of the effect produced by the reference agonist CP-55,940; for pIC50: read-out: cAMP Assay IC50
[5] = target: T1, hCB1Rs; assay type: cell-based; conditions: for β-Arrestin 2 Assay (Operational) ΔLog(τ/KA): normalized to reference CP-55,940; for β-Arrestin 2 Assay (Operational) Log(τ/KA): operational model; for β-Arrestin 2 Assay EMAX / β-Arrestin 2 Assay pEC50 / pEC50: CHO-β2-hCB1 cells; for β-Arrestin 2 Assay EMAX: 90 min, fraction of the effect produced by the reference agonist CP-55,940; for β-Arrestin 2 Assay pEC50 / pEC50: 90 min incubation; for pEC50: read-out: β-Arrestin 2 Assay EC50
[6] = target: T1, hCB1Rs; experiment: CB1 receptor down-regulation after chronic drug exposure; assay type: cell-based
[7] = target: T1, hCB1Rs; experiment: CB1 receptor desensitization after chronic drug exposure; assay type: cell-based; conditions: CHO-hCB1-Rx cells; at 1 hr; CP-55,940 10^−7 M or PNR-4-20 10^−5 M
[8] = system: NIH-Swiss mice; experiment: In vivo cannabinoid tetrad; set-up: species or system mouse
[9] = system: hCB1 and hCB2Rs; conditions: ref [29]; cited from earlier work
[10] = CHO-β2-hCB1, 95% CI printed in the cell

Row | Compound | AC / β-Arrestin 2 (Competitive) Bias Factor [1] | AC / β-Arrestin 2 (Operational) Bias Factor [1] | GTPγS / β-Arrestin 2 (Competitive) Bias Factor [1] | GTPγS / β-Arrestin 2 (Operational) Bias Factor [1] | AC / β-Arrestin 2 (Competitive) ΔΔLog(τ/KA) [1] | AC / β-Arrestin 2 (Operational) ΔΔLog(τ/KA) [1] | GTPγS / β-Arrestin 2 (Competitive) ΔΔLog(τ/KA) [1] | GTPγS / β-Arrestin 2 (Operational) ΔΔLog(τ/KA) [1] | ^3H-CP-55,940 Binding pKi ([2]; CHO-β2-hCB1 membranes) | ^35S-GTPγS Binding Assay ΔLog(τ/KA) [3] | ^35S-GTPγS Binding Assay pEC50 ([3]; CHO-β2-hCB1 membranes) | ^35S-GTPγS Binding Assay EMAX ([3]; CHO-β2-hCB1 membranes) | pEC50 ([3]; CHO-β2-hCB1 membranes) | cAMP Assay Log(τ/KA) [4, 10] | cAMP Assay pIC50 [4] | cAMP Assay IMAX [4] | pIC50 [4] | β-Arrestin 2 Assay (Operational) ΔLog(τ/KA) [5, 10] | β-Arrestin 2 Assay (Operational) Log(τ/KA) [5, 10] | β-Arrestin 2 Assay EMAX [5] | further results
1 | CCCCCCC(C)(C)c1ccc([C@@H]2C[C@H](O)CC[C@H]2CCCO)c(O)c1 [CP-55,940] | 1.00 | 1.00 | 1.00 | 1.0 | 0.0 | 0.0 | 0.0 | 0.0 | – | – | – | – | – | – | – | – | – | – | – | – | –
2 | CCCCCn1cc(C(=O)c2cccc3ccccc23)c2ccccc21 [JWH-018, reference compound] | – | 0.21 | – | 2.0 | – | – | – | 0.30 (−0.20 to 0.81) | 9.12±0.06^a | −0.12^a (−0.69 to −0.45) | 9.25±0.23^a | 1.02 ± 0.10 fractional units and 1.02±0.10^a fractional units | 9.13 | 8.56^b (8.17 to 8.94) | 8.82±0.15^b | 0.90±0.05^a | 8.76 | 0.18^a (−0.15 to 0.51) | 7.27^a (7.20 to 7.34) | 1.16 ± 0.16 fractional units and 1.16±0.16^a fractional units | β-Arrestin 2 Assay pEC50 [5]: 7.17±0.08^a; pEC50 [5]: 7.11; CB1R bias between G protein-dependent and β-arrestin 2 signaling (in words) [1]: little CB1R bias
3 | O=C1/C(=C/c2cn(Cc3ccc(F)cc3)c3ccccc23)N2CCC1CC2 [PNR-4-20] | 13.5 | 29.5 | 2.5 | 5.4 | 1.13 (0.7 to 1.56) | 1.47 (0.93 to 2.00) | 0.40 (0.09 to 0.89) | 0.73 (0.09 to 1.36) | 6.83±0.03^b | −1.99^b (−2.54 to −1.43) | 7.29±0.09^b | 1.02 ± 0.10 fractional units | 7.27 | 6.45^c (6.02 to 6.88) | 6.97±0.34^a,c | 1.26±0.10^a | 6.74 | −2.72^b (−3.33 to −2.10) | 4.37^b (3.82 to 4.93) | 0.24 ± 0.02 fractional units | ^3H-CP-55,940 Binding pKi ([2]; CHO-hCB1-Rx membranes): 7.11±0.13; pKi ([2]; CHO-hCB1-Rx membranes): 7.07; pKi ([2]; CHO-β2-hCB1 membranes): 6.80; ^35S-GTPγS Binding Assay pEC50 ([3]; CHO-hCB1-Rx membranes): 6.89±0.09; ^35S-GTPγS Binding Assay EMAX ([3]; CHO-β2-hCB1 membranes, listed as PNR-420): 1.02±0.10^a fractional units; pEC50 ([3]; CHO-hCB1-Rx membranes): 6.89; cAMP Assay ΔLog(τ/KA) ([4]; CHO-β2-hCB1, normalized to reference CP-55,940, 95% CI printed in the cell): −1.25^c (−1.58 to −0.93); β-Arrestin 2 Assay (Competitive) Log(τ/KA) ([5]; CHO-β2-hCB1, competitive operational model, 95% CI printed in the cell): 4.84^b (4.53 to 5.16); β-Arrestin 2 Assay EMAX ([5]; listed as PNR-420): 0.24±0.02^b fractional units; β-Arrestin 2 Assay pEC50 [5]: 5.28±0.06^b; effect on β-arrestin 2 recruitment produced by CP-55,940 (co-incubation) ([5]; CP-55,940 10^−7 M, test ligand 10^−7 to 10^−4 M): decreased; pEC50 [5]: 5.27; effect of chronic exposure on KD of [^3H]-CP-55,940 ([6]; 10 hr exposure, data not shown): does not alter the KD of [^3H]-CP-55,940; reduction in binding (hCB1R density) ([6]; CHO-hCB1-Rx cells, 10 hrs exposure, PNR-4-20 10^−5 M): 42.2 ± 1.7%; maximal reduction of hCB1R density ([6]; CHO-hCB1-Rx cells, PNR-4-20 10^−5 M, 0 to 10 hrs): 76.4 ± 3.6%; maximal reduction of CB1R density ([6]; CHO-β2-hCB1 cells, at 2 hrs, CP-55,940 10^−7 M or PNR-4-20 10^−5 M): 39.7 ± 4.9%; maximal reduction of G protein activation by CP-55,940 (10^−7 M) [7]: 46.0 ± 5.8%; activity in the cannabinoid tetrad ([8]; NIH-Swiss mice, 10, 30, or 100 mg/kg i.p., assessed 35 min after injection): exhibits activity consistent with that of a CB1R agonist in all four measures of the cannabinoid tetrad; time of peak hypothermic effects after injection ([8]; mice, radiotelemetry pilot studies, 5-min intervals, data not shown): 35 min; selectivity of binding between hCB1 and hCB2Rs [9]: bind relatively non-selectively to hCB1 and hCB2Rs
4 | Cc1c(C(=O)NN2CCCCC2)nn(-c2ccc(Cl)cc2Cl)c1-c1ccc(Cl)cc1 [rimonabant, reference compound] | – | – | – | – | – | – | – | – | – | – | – | – | – | – | – | – | – | – | – | – | reversal of PNR-4-20 tetrad effects by co-administered antagonist ([8]; rimonabant 10 mg/kg with 100 mg/kg PNR-4-20, i.p., mice): significant reversal of the effects of PNR-4-20 on rectal temperature and catalepsy
